Data: publication PMC10799935, “Discovery of a peripheral 5HT2A antagonist as a clinical candidate for metabolic dysfunction-associated steatohepatitis” (Nature Communications, 2024)
pIC50: −log10 of the molar value. Entries after “also recorded” stand apart in the source; their conditions may differ. Where two headings read alike, the source gives them in different places.

Assays:
[1] = target: 5HT3 (Homo sapiens, UniProt P46098); assay: 5HT subtype selectivity: 5HT3; assay type: cell-based; conditions: concentration not given
Method: The derivatives were evaluated at a concentration of 1 μM for their antagonist activity on the 5HT2A receptor (Tables 1–3)[33],[34]. Human 5HT2A stably transfected HEK293 cells (a type of cell derived from kidney embryos)[20] were seeded in a 96-well plate (Costar; 3603) at a density of 9 × 10^4 in 100 μL of minimum essential medium (Welgene; LM007-86) containing 10% dialyzed fetal bovine serum (Gibco; 30067–334) and 1% penicillin/streptomycin (Gibco; 15140-122) and kept in a 37 °C incubator for 24 h. The cells were stained with 100 μL of cytosolic calcium dye using the FLIPR calcium 6 assay solution (Molecular devices, #R8190) supplemented with 2.5 mM probenecid (Sigma; P8761) and incubated for 1 h at 37 °C. After 1 h, the designated amount of the compound was treated in each well and incubated for another 1 h at 37 °C. Then, the cells were loaded in a Flexstation 3 microplate reader (Molecular Devices; FlexStaion) and 50 μL of 5 μM 5HT (serotonin hydrochloride, Sigma; H9523) was injected from a source plate (Nunc 96-well polystyrene conical bottom MicroWell Plate, Thermo; 249662) and the fluorescence intensity (Ex/Em-485nm/ 525 nm) was measured. (Supplementary Fig. 5) For determining the IC50 values of other 5HT subtypes, an Inhibition assay was performed by Eurofins Cerep (Study ID: FR095-0014987, FR095-0016438). […]

[2] = AMES test (mutagenic potential)
[3] = system: HFD-fed C57BL/6J mice; assay: DIO mice: liver histology (H&E), NAFLD activity score (steatosis, inflammation, ballooning); assay type: in vivo, mouse; parameters: key to Steatosis (NAFLD Activity Score), individual animals / Steatosis score, group mean: steatosis score 0-3 (0 <5% to 3 >66% fat accumulation); key to Total NAFLD Activity Score, difference between medians: Actual (treated vs. Vehicle): total NAS, 0-8 scale (sum of steatosis, inflammation, ballooning); conditions: DIO mice; for Lobular inflammation score, Mean Diff. (Vehicle vs. treated) / Steatosis score, Mean Diff. (Vehicle vs. treated) / Total NAFLD Activity Score, Mean Diff. (Vehicle vs. treated): Dunnett's multiple comparisons test; for Lobular inflammation score, group mean / Steatosis score, group mean: PO
Excerpt: Epididymal, inguinal, and liver were harvested, fixed in 10% (w/v) neutral buffered formalin solution (Sigma-Aldrich), and embedded in paraffin. Five-micron-thick tissue sections were deparaffinized, rehydrated, and stained with hematoxylin and eosin (H&E)[10]. The total NAFLD activity score (NAS) is a widely used measure of grading for steatosis, lobular inflammation, and ballooning. The total NAS ranges from 0-8 and is the sum of unweighted scores for steatosis (0: <5%, 1: 5 ~ 33%, 2: 33 ~ 66%, 3: >66% fat accumulation in the liver), lobular inflammation (0: no foci inflammation in x200 field, 1: <2 foci inflammation, 2: 2 ~ 4 foci inflammation, 3: >4 foci inflammation), and hepatocellular ballooning (0: none, 1: few ballooning cells, 2: prominent ballooning cells). MASH was diagnosed when NAS was >5, while non-MASH was diagnosed when NAS was <4. According to the MASH CRN scoring system, a certified pathologist determined the NAS[39]. The histological scoring was performed blindly, without knowledge of any other information.

[4] = system: HFD-fed C57BL/6J mice; assay: DIO mice: quantification of hepatic triglyceride; assay type: in vivo, mouse; conditions: DIO mice; for Hepatic TG levels, Mean Diff. (Vehicle vs. treated): Dunnett's multiple comparisons test; for Hepatic TG Levels, TG per protein, group mean: PO, liver
Method: Liver tissues were homogenized in 5% NP-40 using FastPrep-24. To solubilize fat, the homogenates were heated to 95 °C for 5 min and cooled at 23 °C, and repeated. Triglyceride Reagent (Sigma-Aldrich) or DW was added and incubated at 37 °C for 30 min to hydrolyze TG into glycerol. For the colorimetric assay of hydrolyzed TG levels, samples were incubated with Free Glycerol Reagent (Sigma-Aldrich) at 37 °C for 5 min. Differences in absorbance at 540 nm between hydrolyzed or non-hydrolyzed TG were quantified using a glycerol standard (Sigma-Aldrich). […]

[5] = male SD rats, oral [^14C]-11c 5 mg/kg
Method: Following blood collection, each anesthetized animal was euthanized by CO2 inhalation and carcasses were submerged in a dry ice/hexane bath. Frozen carcasses were stored at approximately -20 °C until processed for QWBA. Duplicate aliquots of approximately 0.1 g whole blood were weighed into combustion boats for analysis by LSC. Duplicate aliquots of approximately 0.1 mL plasma were weighed into scintillation vials and mixed with an appropriate volume of scintillation cocktail for analysis by LSC. The frozen carcasses were individually set in a mold, submerged in 5% (w/v) low viscosity carboxymethylcellulose (CMC), and embedded by placing the stage (mold) in a dry ice/hexane bath. […] Sagittal, 30-µm thick sections of the CMC-embedded carcasses, including QC standards, and of the CMC-embedded calibration standards were sectioned using a Vibratome 9800 Cryomicrotome (Vibratome; St. Louis, MO) with the temperature maintained at approximately -20 °C. […] The IPs were exposed for approximately 4 days while stored at room temperature in a lead-shielded box to minimize background radiation. Digitized phosphor images (autoradioluminograms) were generated in a dark room with subdued lighting using a GE Healthcare Typhoon 7000 Phosphor Imager (Raytest GmbH; Berlin, Germany) and analyzed using AIDA software (Raytest GmbH).

[6] = in vitro; conditions: Chinese hamster

Chain of 5HT3 (P46098 24-478): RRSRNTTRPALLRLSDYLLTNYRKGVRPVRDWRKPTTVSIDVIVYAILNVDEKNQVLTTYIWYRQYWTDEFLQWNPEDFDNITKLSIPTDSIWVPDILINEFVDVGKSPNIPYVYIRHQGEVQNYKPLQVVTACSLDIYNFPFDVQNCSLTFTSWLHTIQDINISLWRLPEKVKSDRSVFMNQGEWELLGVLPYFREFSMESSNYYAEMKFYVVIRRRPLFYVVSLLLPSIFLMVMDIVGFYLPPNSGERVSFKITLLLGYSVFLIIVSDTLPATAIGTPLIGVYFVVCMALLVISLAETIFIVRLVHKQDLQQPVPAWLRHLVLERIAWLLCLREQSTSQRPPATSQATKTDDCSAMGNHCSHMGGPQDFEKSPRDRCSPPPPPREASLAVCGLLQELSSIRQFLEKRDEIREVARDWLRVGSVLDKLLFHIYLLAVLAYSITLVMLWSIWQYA

For `Cc1nc2n(c(=O)c1CCN1CCC(=C3c4ccc(Cl)cc4CCc4cccnc43)CC1)CCCC2O` (stereo not drawn) [Compound 11c], the “Selectivity 3: % inhibition” value [1] was -1%, the AMES [2] was “didn’t show mutagenic potential; also recorded: Negative” and the “steatosis, lobular inflammation, and hepatocyte ballooning in liver tissue (H&E)” value ([3]; 5 and 10 mpk, dose-dependent manner) was “markedly reduced”. For the same compound, the “Hepatocyte ballooning score, difference between medians: Actual (treated vs. Vehicle)” value ([3]; 5mpk) was 0, the “Lobular inflammation score, difference between medians: Actual (treated vs. Vehicle)” value ([3]; 5mpk) was -0.5 and the “Steatosis score, difference between medians: Actual (treated vs. Vehicle)” value ([3]; 5mpk) was 0. The “Total NAFLD Activity Score, difference between medians: Actual (treated vs. Vehicle)” value ([3]; 5mpk) was -1.5, the “Lobular inflammation score, Mean Diff. (Vehicle vs. treated)” value ([3]; 5mpk) was 0.3333 and the “Steatosis score, Mean Diff. (Vehicle vs. treated)” value ([3]; 5mpk) was 0. The “Total NAFLD Activity Score, Mean Diff. (Vehicle vs. treated)” value ([3]; 5mpk) was 1.071, the “Lobular inflammation score, group median” value ([3]; 5mpk, Mann-Whitney analysis) was 1.500, n=6 and the “Steatosis score, group median” value ([3]; 5mpk, Mann-Whitney analysis) was 2.000, n=6. For the same compound, the “Total NAFLD Activity Score, group median” value ([3]; 5mpk, Mann-Whitney analysis) was 5.000, n=7, the “Hepatocyte ballooning score, difference between medians: Actual (treated vs. Vehicle)” value ([3]; 10mpk) was -1 and the “Lobular inflammation score, difference between medians: Actual (treated vs. Vehicle)” value ([3]; 10mpk) was -1. For the same compound, the “Steatosis score, difference between medians: Actual (treated vs. Vehicle)” value ([3]; 10mpk) was -1.5, the “Total NAFLD Activity Score, difference between medians: Actual (treated vs. Vehicle)” value ([3]; 10mpk) was -3.5 and the “Lobular inflammation score, Mean Diff. (Vehicle vs. treated)” value ([3]; 10mpk) was 0.8333. The “Steatosis score, Mean Diff. (Vehicle vs. treated)” value ([3]; 10mpk) was 1.5, the “Total NAFLD Activity Score, Mean Diff. (Vehicle vs. treated)” value ([3]; 10mpk) was 3.667 and the “Hepatocyte ballooning score, group median” value ([3]; 10mpk, Mann-Whitney analysis) was 1.000, n=6. The “Lobular inflammation score, group median” value ([3]; 10mpk, Mann-Whitney analysis) was 1.000, n=6, the “Steatosis score, group median” value ([3]; 10mpk, Mann-Whitney analysis) was 0.5000, n=6 and the “Total NAFLD Activity Score, group median” value ([3]; 10mpk, Mann-Whitney analysis) was 3.000, n=6. The “Lobular inflammation score, group mean” value ([3]; 5mpk) was 1.5, the “Steatosis score, group mean” value ([3]; 5mpk, 5 mg/kg) was 2 and the “Steatosis score, group mean” value ([3]; 10mpk) was 0.5. The “Lobular inflammation score, group mean” value ([3]; 10mpk, 10 mg/kg) was 1, the “Hepatic TG levels, Mean Diff. (Vehicle vs. treated)” value ([4]; 5mpk) was 5.95 mg/g protein and the “Hepatic TG levels, Mean Diff. (Vehicle vs. treated)” value ([4]; 10mpk) was 31.37 mg/g protein. For the same compound, the “Hepatic TG Levels, TG per protein, group mean” value ([4]; 5mpk) was 79.94 mg/g protein, the “Hepatic TG Levels, TG per protein, group mean” value ([4]; 10mpk) was 54.51 mg/g protein and the “hepatic TG concentration” value ([4]; vs vehicle) was “significant reduction; also recorded: decreased”. The “AUC0-t (ng equiv./g)” value ([5]; Adrenal gland) was 7210 ng equiv./g, the “Cmax (ng equiv./g)” value ([5]; Adrenal gland) was 1510 ng equiv./g and the “Tissue: plasma ratio based on AUC0-t” value ([5]; Adrenal gland) was 9.21. The “Tmax” value ([5]; Adrenal gland) was 6 h, the “Cmax (ng equiv./g)” value ([5]; Brain, BQL = below the lower limit of quantitation 148 ng equiv./g) was “BQL” and the “Cmax (ng equiv./g)” value ([5]; Brain, BQL = below the lower limit of quantitation 148 ng equiv./g, listed as [^14C]-compound 11c) was “below the lower limit of quantitation”. For the same compound, the “AUC0-t (ng equiv./g)” value ([5]; Heart) was 1800 ng equiv./g, the “Cmax (ng equiv./g)” value ([5]; Heart) was 369 ng equiv./g and the “Tissue: plasma ratio based on AUC0-t” value ([5]; Heart) was 2.30. The “Tmax” value ([5]; Heart) was 6 h, the “AUC0-t (ng equiv./g)” value ([5]; Kidney) was 7860 ng equiv./g and the “Cmax (ng equiv./g)” value ([5]; Kidney) was 1840 ng equiv./g. The “Tissue: plasma ratio based on AUC0-t” value ([5]; Kidney) was 10.0, the “Tmax” value ([5]; Kidney) was 6 h and the “AUC0-t (ng equiv./g)” value ([5]; Large Intestine) was 127000 ng equiv./g. For the same compound, the “Cmax (ng equiv./g)” value ([5]; Large Intestine) was 9800 ng equiv./g, the “Tissue: plasma ratio based on AUC0-t” value ([5]; Large Intestine) was 162 and the “Tmax” value ([5]; Large Intestine) was 6 h. The “AUC0-t (ng equiv./g)” value ([5]; Liver) was 15400 ng equiv./g, the “Cmax (ng equiv./g)” value ([5]; Liver) was 2920 ng equiv./g and the “Tissue: plasma ratio based on AUC0-t” value ([5]; Liver) was 19.7. The “Tmax” value ([5]; Liver) was 6 h, the “AUC0-t (ng equiv./g)” value ([5]; Lung) was 4290 ng equiv./g and the “Cmax (ng equiv./g)” value ([5]; Lung) was 941 ng equiv./g. For the same compound, the “Tissue: plasma ratio based on AUC0-t” value ([5]; Lung) was 5.48, the “Tmax” value ([5]; Lung) was 6 h and the “AUC0-t (ng equiv./g)” value ([5]; Pancreas) was 15400 ng equiv./g. The “Cmax (ng equiv./g)” value ([5]; Pancreas) was 4330 ng equiv./g, the “Tissue: plasma ratio based on AUC0-t” value ([5]; Pancreas) was 19.7 and the “Tmax” value ([5]; Pancreas) was 6 h. The “AUC0-t (ng equiv./g)” value ([5]; Plasma) was 783 ng equiv./g, the “Cmax (ng equiv./g)” value ([5]; Plasma) was 225 ng equiv./g and the “Tissue: plasma ratio based on AUC0-t” value ([5]; Plasma) was 1.00. For the same compound, the “Tmax” value ([5]; Plasma) was 0.5 h, the “AUC0-t (ng equiv./g)” value ([5]; Small Intestine) was 16600 ng equiv./g and the “Cmax (ng equiv./g)” value ([5]; Small Intestine) was 45000 ng equiv./g. The “Tissue: plasma ratio based on AUC0-t” value ([5]; Small Intestine) was 21.2, the “Tmax” value ([5]; Small Intestine) was 0.25 h and the “AUC0-t (ng equiv./g)” value ([5]; Spleen) was 9520 ng equiv./g. The “Cmax (ng equiv./g)” value ([5]; Spleen) was 2290 ng equiv./g, the “Tissue: plasma ratio based on AUC0-t” value ([5]; Spleen) was 12.2 and the “Tmax” value ([5]; Spleen) was 6 h. The “AUC0-t (ng equiv./g)” value ([5]; Stomach) was 5130 ng equiv./g, the “Cmax (ng equiv./g)” value ([5]; Stomach) was 3240 ng equiv./g and the “Tissue: plasma ratio based on AUC0-t” value ([5]; Stomach) was 6.55. For the same compound, the “Tmax” value ([5]; Stomach) was 0.25 h, the “AUC0-t (ng equiv./g)” value ([5]; Whole Blood) was 589 ng equiv./g and the “Cmax (ng equiv./g)” value ([5]; Whole Blood) was 158 ng equiv./g. For the same compound, the “Tissue: plasma ratio based on AUC0-t” value ([5]; Whole Blood) was 0.75, the “Tmax” value ([5]; Whole Blood) was 0.5 h and the pIC50 [6] was under 4.00.
